Experimental data from US20230212549A1, “COMPOUNDS COMPRISING A […] LIGAND AND USE THEREOF” (priority 2021, published 2023).
Numbered stars: 1 amine (or outer) side, 2 acyl side, 3 side chain; on linkers, the order of the positions; unused ones are H or OH. Bridge positions count the residues as written; N and C are the ends. Square brackets hold non-standard residues; d marks the D form. Peptide text beside a SMILES is read from it. * marks the point of attachment. X13 = O=C(O)CN1CCN(CC(=O)O)CCN(CC(=O)N2CCN(Cc3cc(C[*:1])cc(C[*:2])c3)CC2)CCN(CC(=O)O)CC1; X12 = O=C(O)CN1CCN(CC(=O)O)CCN(CC(=O)NCCCOCCOCCOCCCN*)CCN(CC(=O)O)CC1; Oic = O=C(O)[C@@H]1C[C@@H]2CCCC[C@@H]2N1; 1Nal = N[C@@H](Cc1cccc2ccccc12)C(=O)O; 2Nal = N[C@@H](Cc1ccc2ccccc2c1)C(=O)O; Met(O2) = CS(=O)(=O)CC[C@H](N)C(=O)O; mXylylene = c1cc(C[*:1])cc(C[*:2])c1; PEG6 = NCCOCCOCCOCCOCCOCCOCCC(=O)O; X29 = O=C(CN1CCN([*:1])CC1)[*:2]; NMeE = CN[C@@H](CCC(=O)O)C(=O)O; Suc = O=C(CCC(=O)[*:2])[*:1]; Nle = CCCC[C@H](N)C(=O)O; X2 = NCCNCC(CNCCN)C(=O)*; Hexanoyl = CCCCCC(=O)*; Aib = CC(C)(N)C(=O)O; Nlys = NCCCCNCC(=O)O

Legend:
[1] = biological target: T1, FAP-expressing human WI-38 fibroblasts (Homo sapiens, UniProt Q12884); assay: Competitive FACS binding assay
T1 construct: FAP-expressing human WI-38 fibroblasts (ECACC) were cultured in EMEM; host or cells: WI-38 human fibroblasts
T1 sequence (Q12884 whole entry): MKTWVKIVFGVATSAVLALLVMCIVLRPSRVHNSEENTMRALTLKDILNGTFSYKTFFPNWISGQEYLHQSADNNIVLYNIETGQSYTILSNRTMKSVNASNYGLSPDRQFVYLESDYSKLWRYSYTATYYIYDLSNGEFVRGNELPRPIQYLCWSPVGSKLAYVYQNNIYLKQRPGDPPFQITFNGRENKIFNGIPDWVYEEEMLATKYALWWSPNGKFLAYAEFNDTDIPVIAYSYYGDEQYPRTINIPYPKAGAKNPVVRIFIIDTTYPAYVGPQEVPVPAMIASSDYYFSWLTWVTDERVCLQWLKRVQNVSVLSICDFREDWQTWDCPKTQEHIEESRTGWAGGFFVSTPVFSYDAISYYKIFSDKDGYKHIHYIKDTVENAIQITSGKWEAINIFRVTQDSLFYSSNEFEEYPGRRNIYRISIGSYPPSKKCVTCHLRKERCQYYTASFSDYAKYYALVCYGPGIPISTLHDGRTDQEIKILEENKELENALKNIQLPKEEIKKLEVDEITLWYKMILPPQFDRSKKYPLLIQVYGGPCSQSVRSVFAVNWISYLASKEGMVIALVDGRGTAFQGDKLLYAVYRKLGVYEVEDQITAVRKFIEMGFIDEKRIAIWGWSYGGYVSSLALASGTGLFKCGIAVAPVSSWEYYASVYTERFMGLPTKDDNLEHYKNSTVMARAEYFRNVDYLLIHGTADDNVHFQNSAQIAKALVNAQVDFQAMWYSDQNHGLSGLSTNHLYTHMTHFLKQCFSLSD
Method: Cells were analyzed in an Attune NxT flow cytometer. […] […].
Cells were analyzed in an Attune NxT flow cytometer. […]

[2] = biological target: Human recombinant FAP (Homo sapiens, UniProt Q12884); assay: FRET-based FAP protease activity assay; type: biochemical; set-up: purchased R&D systems 3715-SE
Chain of Human recombinant FAP (Q12884 whole entry): as above

[3] = pIC50 Category (Activity), FRET-based FAP protease activity assay, recombinant human FAP, 37° C.
[4] = pIC50 Category (activity), Recombinant human FAP
[5] = pIC50 Category (Activity), FRET-peptide substrate, 37° C.

SMILES	IC50 [1] [nM]	IC50 [2, 3] [nM]	further results
CCCCCC(=O)N[C@H]1CSCc2cccc(c2)CSC[C@@H](C(N)=O)NC(=O)[C@H](Cc2ccccc2)NC(=O)[C@H](CCS(C)(=O)=O)NC(=O)[C@H]([C@@H](C)O)NC(=O)[C@@H]2CCCN2C(=O)[C@@H]2CCCN2C1=O [3BP-3356, Hex-[Cys(3MeBn)-Pro-Pro-Thr-Moo-Phe-Cys]-NH2] (Hexanoyl-CPPT[Met(O2)]FC-NH2; linker 1-7 via mXylylene)	> 1000	> 1000	
CCCCCC(=O)N[C@H]1CSCc2cc(cc(CN3CCN(C(=O)CN4CCN(CC(=O)O)CCN(CC(=O)O)CCN(CC(=O)O)CC4)CC3)c2)CSC[C@@H](C(=O)N[C@@H](CC(=O)O)C(N)=O)NC(=O)[C@H](Cc2ccccc2)NC(=O)[C@H](C)NC(=O)[C@H](C)NC(=O)[C@@H]2CCCN2C(=O)[C@@H]2CCCN2C1=O [3BP-3746, Hex-[Cys(tMeBn(DOTA-PP))-Pro-Pro-Ala-Ala-Phe-Cys]-Asp-NH2] (Hexanoyl-CPPAAFCD-NH2; linker 1-7 via X13)	> 1000	100 to 794	
C[C@@H](O)[C@@H]1NC(=O)[C@@H]2CCCN2C(=O)[C@@H]2CCCN2C(=O)[C@@H](NC(=O)CCCCCN)CSCc2cccc(c2)CSC[C@@H](C(N)=O)NC(=O)[C@H](Cc2ccccc2)NC(=O)[C@H](CCC(N)=O)NC1=O [3BP-3759, H-Ahx-[Cys(3MeBn)-Pro-Pro-Thr-Gln-Phe-Cys]-NH2]	> 1000	> 1000	
CCCC[C@H](NC(=O)CCOCCOCCOCCOCCOCCOCCNC(=O)CN1CCN(C(=O)C(CNCCN)CNCCN)CC1)C(=O)N[C@H]1CSCc2cccc(c2)CSC[C@@H](C(=O)O)NC(=O)[C@H](Cc2ccccc2)NC(=O)[C@H](CCC(=O)O)NC(=O)[C@H]([C@@H](C)O)NC(=O)[C@@H]2CCCN2C(=O)[C@@H]2CCCN2C1=O [3BP-4781, N4Ac-PPAc-PEG6-Nle-[Cys(3MeBn)-Pro-Pro-Thr-Glu-Phe-Cys]-OH] (X2-[X29][PEG6][Nle]CPPTEFC-OH; linker 4-10 via mXylylene)	10 to 79.4		IC50 [2, 4]: 10 to 79.4 nM
CCCCCC(=O)N[C@H]1CSCc2cc(cc(CN3CCN(C(=O)CN4CCN(CC(=O)O)CCN(CC(=O)O)CCN(CC(=O)O)CC4)CC3)c2)CSC[C@@H](C(=O)N[C@@H](CC(=O)O)C(N)=O)NC(=O)[C@@H]2CCCN2C(=O)[C@H](Cc2ccccc2)NC(=O)[C@@H]2CCCN2C(=O)[C@H](CCC(N)=O)NC(=O)[C@H]([C@@H](C)O)NC1=O [3BP-3856, Hex-[Cys(tMeBn(DOTA-PP))-Thr-Gln-Pro-Phe-Pro-Cys]-Asp-NH2] (Hexanoyl-CTQPFPCD-NH2; linker 1-7 via X13)	> 1000	> 1000	
CCCCNC(=O)N[C@H]1CSCc2cc(CSCCNC(=O)CCP(=O)(O)CN3CCN(CP(=O)(O)CO)CCN(CP(=O)(O)CO)CC3)cc(c2)CSC[C@@H](C(=O)O)NC(=O)[C@H](Cc2ccccc2)NC(=O)[C@H](CCC(N)=O)NC(=O)[C@H]([C@@H](C)O)NC(=O)[C@@H]2CCCN2C(=O)[C@@H]2CCCN2C1=O [3BP-5260, nBu-CAyl-[C(tMeBn(GaNOPO-AET))-PPTQFC]-OH]			pIC50 Category (FACS) ([1]; FAP-expressing human WI-38 fibroblasts): A (pIC50 category A stands for pIC50 values >8.0); pIC50 Category (activity) ([2]; Recombinant human FAP): A (pIC50 category A stands for pIC50 values >8.0)
CCCCCC(=O)N[C@H]1CSCc2cc(CSCCNC(=O)CCC(=O)NCCCOCCOCCOCCCNC(=O)CCC(=O)NCCCOCCOCCOCCCNC(=O)CCC(=O)NCCCOCCOCCOCCCNC(=O)CCC(=O)NCCCOCCOCCOCCCNC(=O)CCCC[C@@H]3SC[C@@H]4NC(=O)N[C@@H]43)cc(c2)CSC[C@@H](C(=O)O)NC(=O)[C@H](Cc2ccccc2)NC(=O)[C@H](CCC(N)=O)NC(=O)[C@H]([C@@H](C)O)NC(=O)[C@@H]2CCCN2C(=O)[C@@H]2CCCN2C1=O [3BP-4170, Hex-[Cys-(tMeBn(Bio-Ttds-Ttds-Ttds-Ttds-AET))-Pro-Pro-Thr-Gln-Phe-Cys]-OH]	10 to 79.4		IC50 [2, 5]: 10 to 79.4 nM
CCCCCC(=O)N[C@H]1CSCc2cc(CSCCNC(=O)CCCC(=O)Nc3ccc(C[C@@H](CN(CCN(CC(=O)O)CC(=O)O)CC(=O)O)N(CC(=O)O)CC(=O)O)cc3)cc(c2)CSC[C@@H](C(=O)O)NC(=O)[C@H](Cc2ccccc2)NC(=O)[C@H](CCC(N)=O)NC(=O)[C@H]([C@@H](C)O)NC(=O)[C@@H]2CCCN2C(=O)[C@@H]2CCCN2C1=O [3BP-4366, Hex-[Cys-(tMeBn(DTPABzl-Glutar-AET))-Pro-Pro-Thr-Gln-Phe-Cys]-OH]	100 to 794		IC50 [2, 5]: 100 to 794 nM
CCCCCC(=O)N[C@H]1CSCc2cc(CSCCNC(=O)COc3ccc4nc3CN(CC(=O)O)CCN(CC(=O)O)CCN(CC(=O)O)C4)cc(c2)CSCC(C(=O)O)NC(=O)[C@H](Cc2ccccc2)NC(=O)[C@H](CCC(N)=O)NC(=O)[C@H]([C@@H](C)O)NC(=O)[C@@H]2CCCN2C(=O)[C@@H]2CCCN2C1=O (stereo partly drawn) [3BP-5273, Hex-[Cys(tMeBn(AcPCTA-AET))-Pro-Pro-Thr-Gln-Phe-Cys]-OH]	< 10		IC50 [2, 4]: < 10 nM

Now from value to compound, other results behind:

IC50 [1] [nM]	IC50 [2, 3] [nM]	SMILES	further results
100 to 794	100 to 794	CSCC[C@H](NC(C)=O)C(=O)N[C@H]1CSCc2cccc(c2)CSC[C@@H](C(=O)N[C@@H](CC(=O)O)C(=O)N[C@@H](Cc2c[nH]cn2)C(=O)N[C@@H](Cc2ccccc2)C(=O)N[C@@H](CCCNC(=N)N)C(=O)N[C@@H](CC(=O)O)C(N)=O)NC(=O)[C@H](Cc2ccccc2)NC(=O)[C@H](CCC(=O)O)NC(=O)[C@H]([C@@H](C)O)NC(=O)[C@@H]2C[C@@H]3CCCC[C@@H]3N2C(=O)[C@@H]2CCCN2C1=O [3BP-3217, Ac-Met-[Cys(3MeBn)-Pro-Oic-Thr-Glu-Phe-Cys]-Asp-His-Phe-Arg-Asp-NH2] (Ac-MCP[Oic]TEFCDHFRD-NH2; linker 2-8 via mXylylene)	
10 to 79.4	10 to 79.4	CCCCCC(=O)N[C@H]1CSCc2cccc(c2)CSC[C@@H](C(N)=O)NC(=O)[C@H](Cc2cccc3ccccc23)NC(=O)[C@H](CCC(=O)O)NC(=O)[C@H]([C@@H](C)O)NC(=O)[C@@H]2CCCN2C(=O)[C@@H]2CCCN2C1=O [3BP-3361, Hex-[Cys(3MeBn)-Pro-Pro-Thr-Glu-1Ni-Cys]-NH2] (Hexanoyl-CPPTE[1Nal]C-NH2; linker 1-7 via mXylylene)	
10 to 79.4	10 to 79.4	CSCC[C@H](NC(C)=O)C(=O)N[C@H]1CSCc2cccc(c2)CSC[C@@H](C(=O)N[C@@H](CC(=O)O)C(=O)N[C@@H](Cc2c[nH]cn2)C(=O)N[C@@H](Cc2ccccc2)C(=O)N[C@@H](CCCNC(=N)N)C(=O)N[C@@H](CC(=O)O)C(N)=O)NC(=O)[C@H](Cc2ccccc2)NC(=O)[C@H](CCC(=O)O)NC(=O)[C@H]([C@@H](C)O)NC(=O)[C@@H]2CCCN2C(=O)C(C)(C)NC1=O [3BP-3204, Ac-Met-[Cys(3MeBn)-Aib-Pro-Thr-Glu-Phe-Cys]-Asp-His-Phe-Arg-Asp-NH2] (Ac-MC[Aib]PTEFCDHFRD-NH2; linker 2-8 via mXylylene)	
< 10	< 10	CC(C)C[C@H](NC(=O)CCC(=O)NCCCOCCOCCOCCCNC(=O)CN1CCN(CC(=O)O)CCN(CC(=O)O)CCN(CC(=O)O)CC1)C(=O)N[C@H]1CSCc2cccc(c2)CSC[C@@H](C(=O)N[C@@H](CC(=O)O)C(=O)N[C@@H](Cc2c[nH]cn2)C(=O)N[C@@H](Cc2ccccc2)C(=O)N[C@@H](CCCNC(=N)N)C(=O)N[C@@H](CC(=O)O)C(N)=O)NC(=O)[C@H](Cc2ccccc2)NC(=O)[C@H](CCC(=O)O)NC(=O)[C@H]([C@@H](C)O)NC(=O)[C@@H]2CCCN2C(=O)[C@@H]2CCCN2C1=O [3BP-3172, DOTA-Ttds-Leu-[Cys(3MeBn)-Pro-Pro-Thr-Glu-Phe-Cys]-Asp-His-Phe-Arg-Asp-NH2] ({X12-Suc}-LCPPTEFCDHFRD-NH2; linker 2-8 via mXylylene)	
> 1000	100 to 794	CC(=O)N[C@@H](CCO)C(=O)N[C@H]1CSCc2cccc(c2)CSC[C@@H](C(N)=O)NC(=O)[C@H](Cc2ccccc2)NC(=O)[C@H](CCC(N)=O)NC(=O)[C@H]([C@@H](C)O)NC(=O)[C@@H]2CCCN2C(=O)[C@@H]2CCCN2C1=O [3BP-3763, Ac-Hse-[Cys(3MeBn)-Pro-Pro-Thr-Gln-Phe-Cys]-NH2]	
> 1000	> 1000	CCCCCC(=O)N[C@H]1CSCc2cccc(c2)CSC[C@@H](C(N)=O)NC(=O)[C@H](Cc2ccccc2)NC(=O)[C@H](CCC(=O)O)N(C)C(=O)[C@H]([C@@H](C)O)NC(=O)[C@@H]2CCCN2C(=O)[C@@H]2CCCN2C1=O [3BP-3357, Hex-[Cys(3MeBn)-Pro-Pro-Thr-Nme-Phe-Cys]-NH2] (Hexanoyl-CPPT[NMeE]FC-NH2; linker 1-7 via mXylylene)	
100 to 794	100 to 794	CCCCCC(=O)N[C@H]1CSCc2cccc(c2)CSC[C@@H](C(N)=O)NC(=O)[C@H](Cc2ccc3ccccc3c2)NC(=O)[C@H](CCC(=O)O)NC(=O)[C@H]([C@@H](C)O)NC(=O)[C@@H]2CCCN2C(=O)[C@@H]2CCCN2C1=O [3BP-3362, Hex-[Cys(3MeBn)-Pro-Pro-Thr-Glu-2Ni-Cys]-NH2] (Hexanoyl-CPPTE[2Nal]C-NH2; linker 1-7 via mXylylene)	
> 1000	> 1000	CCCCCC(=O)N[C@H]1CSCc2cccc(c2)CSC[C@@H](C(N)=O)NC(=O)[C@H](Cc2ccccc2)NC(=O)[C@H](CCC(N)=O)NC(=O)[C@H]([C@@H](C)O)NC(=O)[C@@H]2CCCN2C(=O)CN(CCCCN)C1=O [3BP-3747, Hex-[Cys(3MeBn)-Nlys-Pro-Thr-Gln-Phe-Cys]-NH2] (Hexanoyl-C[Nlys]PTQFC-NH2; linker 1-7 via mXylylene)	
100 to 794	100 to 794	CSCC[C@H](NC(C)=O)C(=O)N[C@H]1CSCc2cccc(c2)CSC[C@@H](C(=O)N[C@@H](CC(=O)O)C(=O)N[C@@H](Cc2c[nH]cn2)C(=O)N[C@@H](Cc2ccccc2)C(=O)N[C@@H](CCCNC(=N)N)C(=O)N[C@@H](CC(=O)O)C(N)=O)NC(=O)[C@H](Cc2ccccc2)NC(=O)[C@H](CCC(=O)O)NC(=O)[C@H]([C@@H](C)O)NC(=O)[C@@H]2CCCN2C(=O)[C@@H]2C[C@@H]3CCCC[C@@H]3N2C1=O [3BP-3216, Ac-Met-[Cys(3MeBn)-Oic-Pro-Thr-Glu-Phe-Cys]-Asp-His-Phe-Arg-Asp-NH2] (Ac-MC[Oic]PTEFCDHFRD-NH2; linker 2-8 via mXylylene)	
